Calls of active or inactive are those of the source.
Assays:
B16-F10 [1] = experiment: Cytotoxicity against mouse B16-F10 cells assessed as reduction in cell viability measured after 1 hrs by MTT assay; format: functional, cell-based; details: dose 1.25-20 µM
B16-F10 [2] = experiment: Cytotoxicity against mouse B16-F10 cells assessed as reduction in cell viability at 1.25 to 20 uM measured after 24 hrs by MTT assay; format: functional, cell-based; details: dose 1.25-20 µM
Escherichia coli = experiment: Antibacterial activity against Escherichia coli ATCC 25922 assessed as reduction in bacterial growth measured for 18 hrs by serial dilution method; format: functional
Staphylococcus aureus = experiment: Antibacterial activity against Staphylococcus aureus ATCC […] assessed as reduction in bacterial growth measured for 18 hrs by serial dilution method; format: functional
trypsin = trypsin (Homo sapiens, UniProt P07477+P07478+P35030); experiment: Stability of compound assessed as trypsin (unknown origin)-mediated compound degradation measured upto 6 hrs by RP-HPLC analysis; format: ADME, protein assay; details: trypsin (enzyme solution), read-out: Drug degradation
B16-F10 [3] = experiment: Membrano-lytic activity in mouse B16-F10 cell membrane measured after 1 hr by LDH leakage assay; format: cell-based; details: dose 1.25-20 µM
B16-F10 [4] = experiment: Membrano-lytic activity in mouse B16-F10 cell membrane at 1.25 to 20 uM measured after 4 hr by LDH leakage assay; format: cell-based; details: dose 1.25-20 µM
B16-F10 [5] = experiment: Membrano-lytic activity in mouse B16-F10 cell membrane at 20 uM measured after 0.5 hr by LDH leakage assay; format: cell-based
B16-F10 [6] = experiment: Membrano-lytic activity in mouse B16-F10 cell membrane at 20 uM measured at 0.5 to 4 hrs by LDH leakage assay; format: cell-based; details: time 0.5-4 hrs
B16-F10 [7] = experiment: Disruption of membrane integrity in mouse B16-F10 cells at 10 uM measured after 1 hr by propidium iodide staining based laser scanning microscopic analysis; format: cell-based
B16-F10 [8] = experiment: Induction of necrotic cell death in mouse B16-F10 at 10 uM measured after 1 to 24 hrs; format: functional, cell-based; details: time 1-24 hrs
B16-F10 [9] = experiment: Induction of morphological changes in mouse B16-F10 cells assessed as cell rounding at 20 uM incubated for 30 mins by microscopic analysis; format: functional, cell-based
B16-F10 [10] = experiment: Induction of morphological changes in mouse B16-F10 cells assessed as cell swelling at 20 uM incubated for 30 mins by microscopic analysis; format: functional, cell-based
B16-F10 [11] = experiment: Induction of morphological changes in mouse B16-F10 cells assessed as cell bursting at 20 uM incubated for 30 mins by microscopic analysis; format: functional, cell-based
B16-F10 [12] = experiment: Induction of cell membrane disruption in mouse B16-F10 cells at 20 uM measured for 30 mins by PI staining based microplate reader assay
B16-F10 [13] = experiment: Induction of cell membrane disruption in mouse B16-F10 cells at 20 uM by PI staining based microplate reader assay; details: time 30.0 min, TDE = time-dependent effect
B16-F10 [14] = experiment: Induction of mitochondrial membrane potential loss in mouse B16-F10 cells assessed as decrease in fluorescence intensity at 10 uM measured at 0.5 to 4 hrs by flow cytometry analysis; format: functional, cell-based; details: time 0.5-4 hrs
B16-F10 [15] = experiment: Induction of mitochondrial membrane potential loss in mouse B16-F10 cells assessed as decrease in fluorescence intensity at 10 uM measured at 4 hrs by flow cytometry analysis; format: functional, cell-based
B16-F10 [16] = experiment: Induction of ROS production in mouse B16-F10 cells at 10 uM measured for 0.5 to 4 hrs by MitoSOX red dye based microplate reader analysis; format: functional, cell-based; details: time 0.5-4 hrs
B16-F10 [17] = experiment: Induction of ROS production in mouse B16-F10 cells at 10 uM measured for 0.5 to 4 hrs by DCFH-DA dye based microplate reader analysis; format: functional, cell-based; details: time 0.5-4 hrs
B16-F10 [18] = experiment: Antiproliferative activity against mouse B16-F10 cells assessed as inhibition of cell viability by measuring ATP level at 10 uM measured for 4 to 24 hrs; format: functional, cell-based; details: time 4-24 hrs
B16-F10 [19] = experiment: Induction of apoptosis in mouse B16-F10 cells assessed as activation of caspase-3 incubated for 24 hrs by microplate reader analysis; format: functional, cell-based
B16-F10 [20] = experiment: Cytotoxicity against mouse B16-F10 cells assessed as induction of cell death measured for 4 to 24 hrs by MTT assay; format: functional, cell-based; details: time 4-24 hrs
B16-F10 [21] = experiment: Induction of necroptosis in mouse B16-F10 cells assessed as increase in ROS level; format: functional, cell-based
B16-F10 [22] = experiment: Induction of apoptosis in mouse B16-F10 cells assessed as decrease in ATP level; format: functional, cell-based
B16-F10 [23] = experiment: Induction of necroptosis in mouse B16-F10 cells assessed as cell death at 5 to 20 uM measured for 4 to 24 hrs in presence of Nec-1; format: functional, cell-based; details: dose 5-20 µM, time 4-24 hrs
B16-F10 [24] = experiment: Induction of cell cycle arrest in mouse B16-F10 cells assessed as accumulation at G0/G1 phase at 10 uM and measured after 24 hrs PI staining based by flow cytometry; format: functional
B16-F10 [25] = experiment: Antitumor activity against mouse B16-F10 cells implanted in intratumorally dosed C57BL/6 mouse assessed as reduction in tumor volume administered for 3 days by vernier caliper method; format: functional, organism-based; details: time 3.0 day
[26] = Toxicity in C57BL/6 […] mouse implanted with mouse B16-F10 cells assessed as animal death administered intratumorally; format: cell-based; details: in vivo, other, route it(Intratumoral)

H-KWKLFKKIGAVLKVL-NH2
32 µM: MIC (Escherichia coli)
Non-Toxic: Activity [26]
4 µM: MIC (Staphylococcus aureus)
100%: metabolised at 6 h (trypsin)
active: Activity (B16-F10 [1]) Dose-Dependent Effect | Activity (B16-F10 [2]) | Activity (B16-F10 [3]) Dose-Dependent Effect | Activity (B16-F10 [4]) | Activity (B16-F10 [5]) | Activity (B16-F10 [7]) | Activity (B16-F10 [8]) | Activity (B16-F10 [9]) | Activity (B16-F10 [10]) | Activity (B16-F10 [11]) | Activity (B16-F10 [12]) | Activity (B16-F10 [13]) Tde | Activity (B16-F10 [14]) | Activity (B16-F10 [16]) | Activity (B16-F10 [17]) | Activity (B16-F10 [18]) | Activity (B16-F10 [21]) | Activity (B16-F10 [23]) | Activity (B16-F10 [25])
inactive: Activity (B16-F10 [6]) | Activity (B16-F10 [15]) | Activity (B16-F10 [19]) | Activity (B16-F10 [20]) | Activity (B16-F10 [22]) | Activity (B16-F10 [24])

Reference: ChEMBL document CHEMBL5338712, “Influence of chain length on the anticancer activity of the antimicrobial peptide CAMEL with fatty acid modification” (Eur J Med Chem, 2022)
